Assays:
[1] = test system: Primary epidermal keratinocytes (HEKa)
[2] = test system: Primary gingival keratinocytes

| SMILES | CC50 [1] [µM] | CC50 [2] [µM] | CC50 Value Primary epidermal keratinocytes (HEKa) [1] | CC50 Value Primary gingival keratinocytes [2] |
| --- | --- | --- | --- | --- |
| Nc1ncn([C@@H]2O[C@H](CO)[C@@H](O)[C@H]2O)c(=O)n1 [AZACYTIDINE, azacytidine] | 51.2 | 1.8 |  |  |
| O=C1[O][Pt]2([NH][C@@H]3CCCC[C@H]3[NH]2)[O]C1=O [OXALIPLATIN, oxaliplatin] | 32.3 | 46 |  |  |
| CCCCCOC(=O)Nc1nc(=O)n([C@@H]2O[C@H](C)[C@@H](O)[C@H]2O)cc1F [CAPECITABIN, capecitabin] |  | 103 | Not calculable |  |
| O=c1[nH]cc(F)c(=O)[nH]1 [5-FLUOROURACILE, 5-fluorouracile] |  |  | Not calculable | Not calculable |
